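Test compounds were applied to cells in 96-well plates for 48 hours at 5 doses. The concentration for 50% growth inhibition is given as GI50. TGI marks complete inhibition of growth.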
Tests used:
Assay in all cases: inhibition of tumour cell growth, NCI panel, 48 h
SK-MEL-28 melanoma = tested on: SK-MEL-28 melanoma
MALME-3M melanoma = tested on: MALME-3M melanoma
UACC-257 melanoma = tested on: UACC-257 melanoma
HCT-116 colon = tested on: HCT-116 colon
SW-620 colon = tested on: SW-620 colon
KM12 colon = tested on: KM12 colon
SF-295 CNS = tested on: SF-295 CNS
HCT-15 colon = tested on: HCT-15 colon
SN12C renal = tested on: SN12C renal
PC-3 prostate = tested on: PC-3 prostate

SMILES	GI50 (SK-MEL-28 melanoma)	TGI (SK-MEL-28 melanoma)	GI50 (MALME-3M melanoma)	TGI (MALME-3M melanoma)	GI50 (UACC-257 melanoma)	TGI (UACC-257 melanoma)	GI50 (HCT-116 colon)	TGI (HCT-116 colon)	GI50 (SW-620 colon)	TGI (SW-620 colon)	GI50 (KM12 colon)	TGI (KM12 colon)	GI50 (SF-295 CNS)	TGI (SF-295 CNS)	GI50 (HCT-15 colon)	TGI (HCT-15 colon)	TGI (SN12C renal)	GI50 (SN12C renal)	GI50 (PC-3 prostate)	TGI (PC-3 prostate)
C[C@]12CC[C@H]3[C@@H](C[C@@H]4N=C(c5ccc(O)cc5)S[C@@]45C[C@H](O)CC[C@]35C)[C@@H]1CC[C@@H]2O	3050 nM	66 µM	3.76 µM	> 100 µM	19.1 µM	> 100 µM	2370 nM	27.4 µM	8.4 µM	> 100 µM	7.24 µM	> 100 µM	413 nM	2.03 µM	2430 nM	20.7 µM				
Oc1cc2c(cc1O)-c1[nH]ncc1CC2		> 100 µM		> 100 µM		> 100 µM		> 100 µM		> 100 µM		> 100 µM		> 100 µM		> 100 µM	> 100 µM			
CC(C)CC(=O)NS(=O)(=O)c1ccccc1		> 100 µM		> 100 µM		> 100 µM		> 100 µM		> 100 µM		> 100 µM		> 100 µM		> 100 µM	> 100 µM			
CC1=C(c2cc(C(=O)Nc3nccs3)nc(NC#N)n2)Sc2ccccc2N1		> 100 µM		> 100 µM		> 100 µM		> 100 µM		> 100 µM		> 100 µM		> 100 µM		> 100 µM	> 100 µM			
O=CC1(C2(C=O)c3ccccc3-c3ccccc32)c2ccccc2-c2ccccc21	1720 nM	3.38 µM	2.68 µM	5.94 µM	2.16 µM	5.29 µM			1.8 µM	3.53 µM					1680 nM	3.66 µM	5.83 µM	2340 nM	1440 nM	4.65 µM
CN(C)/C(N)=N/C(N)=S		> 100 µM		> 100 µM		> 100 µM		> 100 µM		> 100 µM		> 100 µM		> 100 µM		> 100 µM	> 100 µM			
O=C(c1ccc2c3c(ccc(C(=O)C(F)(F)F)c13)CC2)C(F)(F)F		> 100 µM		> 100 µM		> 100 µM		> 100 µM		> 100 µM		> 100 µM		> 100 µM		> 100 µM	> 100 µM			
CC(O[Si](C)(C)C)C1C=CC(C)n2c(=O)n(-c3ccccc3)c(=O)n21 (configuration not stated)		> 100 µM		> 100 µM				> 100 µM				> 100 µM		> 100 µM		> 100 µM				
CCC(/C(=N\Nc1c(Cl)cc(Cl)cc1Cl)c1ccccc1)n1ccnc1C (configuration not stated)		29.7 µM		24.8 µM		28.3 µM		20.8 µM		35.7 µM		26.8 µM		24.7 µM		24.4 µM	26.4 µM			
O=C(O)C1OC(Oc2cc(O)c3c(=O)cc(-c4ccc(O)cc4)oc3c2)C(O)C(O)C1O (configuration not stated)		> 100 µM		> 100 µM		> 100 µM		> 100 µM		> 100 µM		> 100 µM		> 100 µM			> 100 µM			
CCC/C(=N\NC(=O)c1cc2ccccc2cc1O)C(CC)C(=O)CCC(=O)N(Cc1ccccc1)Cc1ccccc1 (configuration not stated)		> 100 µM		> 100 µM		> 100 µM		> 100 µM		> 100 µM		> 100 µM		> 100 µM		> 100 µM	> 100 µM			

Source: PubChem BioAssay (NCI)
